Measurements: patent US20260216179A1, “1,5-NAPHTHYRIDINE DERIVATIVES AS KRAS ONCOPROTEIN INHIBITORS” (Beta Pharma, Inc., priority 2022, published 2026)
Like-named read-outs stand apart in the source and are kept apart here.

How the values were obtained:
KRAS G12C [1] = molecular target: T1, KRAS G12C (Homo sapiens, UniProt P01116, G12C); assay: NanoBRET target engagement cellular assay in transiently transfected HEK293 cells; assay type: cell-based; set-up: expressed in transfected cells; host or cells: HEK293, transiently transfected; details: RAS tracer K2 1 μM, 2 hours at 37° C.
Experimental: KRAS G12C cellular activity was determined in a target engagement cellular assay (NanoBRET™) in transiently transfected HEK293 cells by Reaction Biology Corporation (RBC), 1 Great Valley Parkway, Suite 2 Malvern, PA 19355, USA. HEK293 were cultivated to 70-80% confluence prior to the assay followed by trypsinizing and collection of the cells. BI-2852 was used as the KRAS G12C reference compound. Each test compound solution was delivered from a compound source plate to the wells of 384-well white non-binding surface plate by an Echo 550 prior to the assay.
A 10 μg/mL solution of DNA in Opti-MEM was prepared without serum that consisted of 1 μg LgBiT®-KRAS (G12C)-NanoLuc fusion vector, 1 μg SmBIT®-KRAS (G12C)-NanoLuc fusion vector and 8 μg transfection carrier DNA. This mixture was subsequently treated with 30 μL of FuGENE HD Transfection Reagent into each milliliter of DNA mixture to form a lipid: DNA complex. The resulting mixture was then gently mixed by inversion and incubated at ambient temperature for 20 minutes to allow complexes to form. A mixture of 1 part of lipid: DNA complex with 20 parts of suspended HEK293 cells was added to a sterile conical tube and mixed gently by inversion. The cells+lipid: DNA complex mixture was then added to a sterile tissue culture dish and incubated for 24 hours. The medium was removed from the dish via aspiration followed by trypsinizing and allowing the cells to dissociate from the tissue culture dish. The trypsin was subsequently neutralized by using medium containing serum and centrifugation at 200×g for 5 minutes to pellet the cells in the conical tube. The cell density was adjusted to 2×10^5 cells/mL in Opti-MEM without phenol red. One part of Complete 20× NanoBRET™ RAS Tracer Reagent was dispensed to 20 parts of cells in the conical tube and mixed gently by inversion. The resulting cell suspension was dispensed into a white, 384-well NBS plate containing the test compounds (starting at 10 μM, 10-dose with 3-fold dilution) at 37° C., 5% CO2 for 2 hours. The final concentration for RAS tracer K2 was 1 μM. […]
Freshly prepared substrate solution (3×) in the assay medium was added to each well of the 384-well NBS plate and incubated for 3 minutes at room temperature. The donor emission wavelength (460 nm) and acceptor emission wavelength (600 nm) were measured using an Envision 2104 plate reader. […] The BRET ratio was calculated using the following equation: BRET Ratio= [(Acceptor sample÷Donor sample)−(Acceptor no-tracer control[…]Donor no-tracer control)]. The normalized BRET response (%) was calculated by the following equation: (BRET ratio of test compound/BRET ratio of DMSO control)*100%. The IC50 curves were plotted and IC50 values were calculated with GraphPad Prism 4 based on a sigmoidal dose-response equation.
Target sequence in this assay (P01116 1-186 isoform P01116-2 G12C limits assumed): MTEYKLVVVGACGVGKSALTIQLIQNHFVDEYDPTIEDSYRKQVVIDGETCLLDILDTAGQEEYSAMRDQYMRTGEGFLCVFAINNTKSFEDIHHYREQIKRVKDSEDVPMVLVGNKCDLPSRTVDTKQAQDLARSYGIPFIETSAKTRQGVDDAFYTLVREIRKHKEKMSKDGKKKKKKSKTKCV
Target sequence in this assay (P01116 1-186 isoform P01116-2 G12C limits assumed): as above

KRAS G12C [2] = molecular target: T1, KRAS G12C; assay: KRAS G12C/SOS1 nucleotide exchange assay (Bodipy-GDP to GTP exchange); assay type: biochemical; set-up: KRAS G12C or KRAS G12D (aa 2-169, expressed in E. coli); His-tag (TEV cleavable) (N); purchased Reaction Biology Corporation (RBC), which ran the assay MSC-11-502 (SOS1 only; none given for KRAS); host or cells: E. coli; details: SOS1-mediated Bodipy-GDP/KRAS G12C exchange; dRFU analysis method for covalent inhibitors; 30 min pre-incubation at RT; 0.5% DMSO
Experimental: (§1) The biological activity of the Examples was determined in a KRAS
(§2) The assay evaluates the SOS1-mediated Bodipy-GDP to GTP exchange observed with KRAS G12C and KRAS G12D.
(§3) Reaction Buffer: 40 mM HEPES 7.4, 10 mM MgCl2, 1 mM DTT 0.002% Triton X100, 0.5% DMSO.
(§4) • 1. Deliver 10 μL of 1.5× KRAS solution in freshly prepared reaction buffer to reaction wells. • 2. Deliver compounds in 100% DMSO into buffer using acoustic technology (Echo550; nanoliter range). • 3. Incubate compounds with KRAS for 30 minutes at room temperature. • 4. Prepare 3× (SOS1+GTP) solution in reaction buffer. • 5. Deliver 5 μL of SOS1+GTP solution into reactions wells (deliver GTP only to column 1 for no SOS1 control). • 6.
Data Analysis: The fluorescence data was normalized using the equation below and fitted to “one phase exponential decay” equation using GraphPad prism software. The plateau was fixed to zero (use for non-covalent inhibitors) and rate ×1000 was used to calculate the IC50 values.
(§5) where Yraw is defined as fluorescence at time t, Ao is the average initial fluorescence with no SOS1, and Mis the minimum fluorescence at the end of the reaction at the maximum SOS1.
The background subtracted signals (no SOS1 protein wells were used as background) were converted to % activity relative to DMSO controls. Data was analyzed using GraphPad Prism 4 with “sigmoidal dose-response (variable slope)”; 4 parameters with Hill Slope. The constraints were bottom (constant equal to 0) and top (must be less than 120).
Target sequence in this assay (P01116 2-169 G12C): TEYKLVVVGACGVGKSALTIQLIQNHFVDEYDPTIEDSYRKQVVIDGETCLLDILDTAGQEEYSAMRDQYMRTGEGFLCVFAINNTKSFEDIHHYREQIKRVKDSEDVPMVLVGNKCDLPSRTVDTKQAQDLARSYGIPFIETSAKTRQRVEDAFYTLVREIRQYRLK

KRAS G12D = molecular target: T2, KRAS G12D (Homo sapiens, UniProt P01116, G12D); assay: KRAS G12D/SOS1 nucleotide exchange assay (Bodipy-GDP to GTP exchange); assay type: biochemical; details: SOS1-mediated Bodipy-GDP/KRAS G12D exchange; rate constant method (plateau = 0) for reversible inhibitors; 30 min pre-incubation at RT; 0.5% DMSO
T2 construct: KRAS G12C or KRAS G12D (aa 2-169, expressed in E. coli); His-tag (TEV cleavable) (N); purchased Reaction Biology Corporation (RBC), which ran the assay MSC-11-502 (SOS1 only; none given for KRAS); host or cells: E. coli
T2 sequence (P01116 2-169 G12D): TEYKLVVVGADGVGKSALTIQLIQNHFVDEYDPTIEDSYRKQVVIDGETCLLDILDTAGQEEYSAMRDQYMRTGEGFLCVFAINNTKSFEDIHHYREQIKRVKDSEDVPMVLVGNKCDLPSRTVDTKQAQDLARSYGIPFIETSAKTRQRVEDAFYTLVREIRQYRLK
Experimental: as §1, §2
The compound pre-incubation time was 30 min at RT and the curve fits were performed when the activities at the highest concentration of compounds were less than 65%.
as §3
as §4, with “Deliver 5 μL of SOS1+GTP solution into reactions wells (deliver GTP only to column 1 for no SOS1 control). • 6.” left out
Data Analysis: The fluorescence data was normalized using the equation below and fitted to “one phase exponential decay” equation using GraphPad prism software. […]
as §5
The background subtracted signals (no SOS1 protein wells were used as background) were converted to % activity relative to DMSO controls. Data was analyzed using GraphPad Prism 4 with “sigmoidal dose-response (variable slope)”; 4 parameters with Hill Slope. […]

[3] = PK profile in male CD1 mice; assay type: in vivo; details: for MRT inf: read-out: MRT0-inf; for MRT last: read-out: MRT0-last
Description: PK Profile in male CD1 mice:

MIA PaCa-2 cells = assay: CellTiter-Glo viability assay; assay type: cell-based; details: Homo sapiens, 72 hours, read-out: CTG Assay IC50 Values
Experimental: The reference compound staurosporine was purchased from Sigma-Aldrich (Saint Louis, MI). CellTiter-Glo® 2.0 Luminescent cell viability assay reagent was purchased from Promega (Madison, WI). MIA PaCa-2 cell line was purchased from American Type Culture Collection (Manassas, VA). MIA PaCa-2 cells were cultured in DMEM containing 10% FBS, 2.5% horse serum, 100 μg/ml of penicillin and 100 μg/ml of streptomycin. Cultures were maintained at 37° C. in a humidified atmosphere of 5% CO2 and 95% air.
Test compounds and reference compound, staurosporine, were diluted in DMSO solution with 10-dose and 3-fold dilution in a source plate starting at 10 mM. • 2. 25 nL of test compounds or 25 nL of staurosporine was delivered from the source plate to each well of the 384-well cell culture plate by Echo 550. • 3. 25 μL of culture media containing 2000 cells was added to each of the wells of the cell culture plate in duplicate. • 4. The cells were incubated with the compounds at 37° C., 5% CO2 for 72 hours. • 5. […] Luminescence was recorded by Envision 2104 Multilabel Reader (PerkinElmer, Santa Clara, CA). The number of viable cells in culture was determined based on quantitation of the ATP present in each culture well. • 8. The IC50 curves were plotted and IC50 values were calculated using the GraphPad Prism 4 program based on a sigmoidal dose-response equation

[4] = 3 mg/kg, i.v., single dose, mean plasma
[5] = 30 mg/kg, p.o., single dose, mean plasma
[6] = mouse, iv, 3 mg/kg, i.v., single dose, mean plasma
[7] = mouse, iv, 3 mg/kg, single dose, mean plasma
[8] = mouse, po, 30 mg/kg, p.o., single dose, mean plasma
[9] = mouse, po, 30 mg/kg, single dose, mean plasma

`Cn1cnc(Cn2ccc3ccc(CNCc4[nH]c5ccccc5c4[C@H]4NC(=O)c5ccc(O)cc54)cc32)c1` [BI-2852, reference compound] gave an IC50 (KRAS G12C [1]) of 320 nM.
For `C=CC(=O)N1CCN(c2cc(OC[C@@H]3CCCN3C)nc3cc(-c4cccc5cccc(Cl)c45)cnc23)C[C@@H]1CC#N` [Example 1, 2-((S)-1-Acryloyl-4-(7-(8-chloronaphthalen-1-yl)-2-(((S)-1-methylpyrrolidin-2-yl)methoxy)-1,5-naphthyridin-4-yl)piperazin-2-yl)acetonitrile], the IC50 (KRAS G12C [2]) was 38 nM and the IC50 (KRAS G12C [1]) was 4.4 nM.
For `C=C(F)C(=O)N1CCN(c2cc(OC[C@@H]3CCCN3C)nc3cc(-c4cccc5cccc(Cl)c45)cnc23)C[C@@H]1CC#N` [Example 2, 2-((S)-4-(7-(8-Chloronaphthalen-1-yl)-2-(((S)-1-methylpyrrolidin-2-yl)methoxy)-1,5-naphthyridin-4-yl)-1-(2-fluoroacryloyl)piperazin-2-yl)acetonitrile], the IC50 (KRAS G12C [2]) was 130 nM.
With `CC(=O)c1c(F)ccc2cc(O)cc(-c3cnc4c(N5C[C@H]6CC[C@@H](C5)N6)cc(OC[C@@]56CCCN5C[C@H](F)C6)nc4c3)c12` [Example 3, 1-(8-(8-((1R,5S)-3,8-Diazabicyclo[3.2.1]octan-3-yl)-6-(((2R,7aS)-2-fluorotetrahydro-1H-pyrrolizin-7a(5H)-yl)methoxy)-1,5-naphthyridin-3-yl)-2-fluoro-6-hydroxynaphthalen-1-yl)ethan-1-one] the IC50 (KRAS G12D) was 1500 nM.
In the case of `Oc1cc(-c2cnc3c(N4C[C@H]5CC[C@@H](C4)N5)cc(OCC45CCCN4CCC5)nc3c2)c2ccccc2c1` [Example 4, 4-(8-((1R,5S)-3,8-Diazabicyclo[3.2.1]octan-3-yl)-6-((tetrahydro-1H-pyrrolizin-7a(5H)-yl)methoxy)-1,5-naphthyridin-3-yl)naphthalen-2-ol], the IC50 (KRAS G12D) is reported as 1000 nM.
For `C=CC(=O)N1CCN(c2cc(OCC34CCCN3CCC4)nc3cc(-c4cccc5cccc(Cl)c45)cnc23)C[C@@H]1CC#N` [Example 5, (S)-2-(1-acryloyl-4-(7-(8-chloronaphthalen-1-yl)-2-((tetrahydro-1H-pyrrolizin-7a(5H)-yl)methoxy)-1,5-naphthyridin-4-yl)piperazin-2-yl)acetonitrile], the IC50 (KRAS G12C [2]) was 38 nM, the AUCExtra [3, 4] was 2.52% and the AUMCExtra [3, 4] was 14.3%. For the same molecule, the Tlast [3, 4] was 8.00 h, the AUCExtra [3, 5] was 0.315% and the AUMCExtra [3, 5] was 1.85%. For the same molecule, the Tlast [3, 5] was 24.0 h, the MRT inf [3, 6] was 1.77 h and the MRT last [3, 6] was 1.56 h. For the same molecule, the Vd ([3]; mouse, iv, 3 mg/kg, i.v., single dose, mean plasma, read-out: Vdss) was 7.7 L/kg, the AUC(0-inf) [3, 7] was 691 ng·h/mL and the AUC(0-t) [3, 7] was 673 ng·h/mL. For the same molecule, the C0 [3, 7] was 800 ng/mL, the clearance [3, 7] was 72.4 mL/min/kg and the half-life [3, 7] was 1.42 h. For the same molecule, the bioavailability ([3]; mouse, plasma, oral, 30 mg/kg, p.o., single dose vs 3 mg/kg i.v.) was 21.7%, the MRT inf [3, 8] was 4.79 h and the MRT last [3, 8] was 4.72 h. The AUC(0-inf) [3, 9] was 1500 ng·h/mL, the AUC(0-t) [3, 9] was 1500 ng·h/mL and the Cmax [3, 9] was 249 ng/mL. The Tmax [3, 9] was 1 h, the half-life [3, 9] was 2.85 h and the IC50 (MIA PaCa-2 cells) was 2880 nM. For the same molecule, the IC50 (KRAS G12C [1]) was < 0.5 nM.
`C=C(F)C(=O)N1CCN(c2cc(OCC34CCCN3CCC4)nc3cc(-c4cccc5cccc(Cl)c45)cnc23)C[C@@H]1CC#N` [Example 6, (S)-2-(4-(7-(8-chloronaphthalen-1-yl)-2-((tetrahydro-1H-pyrrolizin-7a(5H)-yl)methoxy)-1,5-naphthyridin-4-yl)-1-(2-fluoroacryloyl)piperazin-2-yl)acetonitrile] gave an IC50 (KRAS G12C [2]) of 59 nM and an IC50 (KRAS G12C [1]) of 334 nM.
In the case of `C=CC(=O)N1CCN(c2cc(OC[C@@]34CCCN3C[C@H](F)C4)nc3cc(-c4cccc5cccc(Cl)c45)cnc23)C[C@@H]1CC#N` [Example 7, 2-((S)-1-acryloyl-4-(7-(8-chloronaphthalen-1-yl)-2-(((2R,7aS)-2-fluorotetrahydro-1H-pyrrolizin-7a(5H)-yl)methoxy)-1,5-naphthyridin-4-yl)piperazin-2-yl)acetonitrile], the IC50 (KRAS G12C [2]) is reported as 31 nM.
For `C=C(F)C(=O)N1CCN(c2cc(OC[C@@]34CCCN3C[C@H](F)C4)nc3cc(-c4cccc5cccc(Cl)c45)cnc23)C[C@@H]1CC#N` [Example 8, 2-((S)-4-(7-(8-chloronaphthalen-1-yl)-2-(((2R,7aS)-2-fluorotetrahydro-1H-pyrrolizin-7a(5H)-yl)methoxy)-1,5-naphthyridin-4-yl)-1-(2-fluoroacryloyl)piperazin-2-yl)acetonitrile], the IC50 (KRAS G12C [2]) was 65 nM.
`CN[C@@H]1C[C@H]2O[C@@](C)([C@@H]1OC)n1c3ccccc3c3c4c(c5c6ccccc6n2c5c31)C(=O)NC4` [Staurosporine, staurosporine, reference compound] gave an IC50 (MIA PaCa-2 cells) of 249 nM.
